# Results as given in article PMC11220654, “A Frog Skin‐Derived Peptide Targeting SCD1 Exerts Radioprotective Effects Against Skin Injury by Inhibiting STING‐Mediated Inflammation” (Advanced Science, 2024).
# What was measured:
# Format in all cases: cell-based, human
# [1] = tested on: irradiated HaCaT cells; experiment: Autophagy, mRFP-GFP-LC3 infection study and LC3 II Western blotting; details: 15 µM RIFSP-2, Western blotting
# Source text: Figure 4 MUFAs facilitate ionizing radiation‐induced STING activation, which is disrupted by RIFSP‐2. A) Bioinformatic analysis of the connection between specific binding proteins of RIFSP‐2 (green nodes) and STING (red nodes) in irradiated skin cells. B) Detection of the phosphorylation of STING in RIFSP‐2‐treated and irradiated HaCaT cells through IP analysis. C) Detection of the phosphorylation of TBK1 in RIFSP‐2‐treated primary skin cells from STING wild type mice and depletion ones through Western blotting analysis. D) Investigation of the interaction between STING and RIFSP‐2 in irradiated HaCaT cells based on the established Avidin‐Biotin‐RIFSP‐2 system. E) Volcano plots of differences between lipid class in irradiated HaCaT cells pretreated with RIFSP‐2 or not. F) Influence of LPC (18:1) and RIFSP‐2 in STING downstream signals in irradiated HaCaT cells through Western blotting analysis. G) Influence of LPC (18:1) and RIFSP‐2 in STING downstream inflammatory factors in irradiated HaCaT and RAW 264.7 cells through ELISA assays. […] J) Alteration of biomarkers for autophagy and pyroptosis in irradiated HaCaT cells pretreated with 15 µM RIFSP‐2 in combination with H151 or MF438, detected by Western blotting. *P < 0.05 and **P < 0.01, compared with the control group. […]
# [2] = tested on: irradiated skin cells; experiment: LDH release and JC-1 staining with H151; details: RIFSP-2 15 µM
# Source text: Next, we investigated whether suppression of the SCD1‐MUFA‐STING axis by RIFSP‐2 accounts for its protective effect against radiation injury in skin cells. […] Besides, Sting knockout dramatically limited the clonogenic formation ability after administration of RIFSP‐2 (Figure S4F, Supporting Information).
# Figure 5 RIFSP‐2 mitigates radiation injury in a STING‐related manner. A) Cell proliferation and death assays for influence of RIFSP‐2 in primary skin cells from STING‐depleted and wild‐type mice detected by CCK‐8 and LDH analysis. B) LDH analysis of irradiated and nonirradiated skin cells pretreated with 15 µM RIFSP‐2 in combination with H151 or not. […]
# A clonogenic survival assay of skin cells was performed as previously reported (1). […] Colonies consisting of 50 or more cells were counted as a clone. The relative clonogenic survival fraction was calculated using ImageJ software as previously reported […]
# Cells were seeded in a 96-well plate at a density of 1 X 10^4 cells per well. […] In vitro viability was measured using the Cell Counting Kit-8 (CCK-8) (Dojindo Laboratories, Kumamoto, Japan).
# Optical density was measured at 450 nm using a microplate reader (Biotek, Winooski, VT).
# Cell death was measured by the level of LDH released into the supernatant using an LDH cytotoxicity assay kit (Beyotime, Nantong, China) according to the manufacturer’s instructions. […]
# [3] = tested on: skin cells; experiment: BODIPY 493/503 probe staining, neutral lipid droplets; details: pretreatment
# Method: (§1) Figure 3 RIFSP‐2 restrained SCD1‐mediated biogenesis of MUFA in irradiated skin cells. A) Schematic showing the proteomic analysis performed to investigate the interactome of RIFSP‐2 in irradiated skin cells, as determined by liquid chromatography with tandem mass spectrometry (LC–MS/MS), based on the Avidin‐Biotin‐RIFSP‐2 system. B) Bradford staining of proteins pulled down with Biotin‐RIFSP‐2 and Venn diagram showing common and specific interactomes detected by LC–MS/MS and representative proteins. C) The enriched functions of RIFSP‐2 interactomes in irradiated skin cells based on Gene Ontology (GO) molecular function analysis. D) Colocalization analysis showing FITC‐RIFSP‐2 (green) and ER‐Tracker (red) in irradiated HaCaT cells. E) Changes in neutral lipid droplet formation in irradiated skin cells treated with RIFSP‐2 detected via BODIPY 493/503 probe staining. F) Verification of the interaction between RIFSP‐2 and SCD1 through immunoprecipitation (IP) analysis. G) Molecular simulation of the interaction between RIFSP‐2 and SCD1. […] M–P) Influence of the SCD1 inhibitor MF438 on the neutral lipid droplet formation, ferroptosis, and apoptosis of irradiated skin cells pretreated with RIFSP‐2, as detected by BODIPY 493/503 probe staining, BODIPY 581/591 C11 probe staining and AV/PI staining. *P < 0.05 and **P < 0.01, compared with the control group. […]
# [4] = tested on: skin cells; experiment: BODIPY 581/591 C11 probe (ferroptosis) and AV/PI staining
# Method: as §1, with “[…],” for “ferroptosis, and apoptosis of irradiated skin cells pretreated with RIFSP‐2,”
# [5] = tested on: STING phosphorylation in irradiated skin cells; experiment: STING phosphorylation by IP analysis; details: irradiated skin cells (HaCaT)
# Source text: Considering the localization of RIFSP‐2 in ER, we then investigated the potential connection between RIFSP‐2 and STING. First, we adopted a proteomic analysis to investigated the interactomes of STING in HaCaT cells, and identified 136 specific proteins in response to radiation. Then, strong connections between specific interactomes for RIFSP‐2 and STING in irradiated skin cells were established in protein interactive analysis, with confidence score > 0.7 (high confidence) (Figure 4A).
# Figure 4 MUFAs facilitate ionizing radiation‐induced STING activation, which is disrupted by RIFSP‐2. A) Bioinformatic analysis of the connection between specific binding proteins of RIFSP‐2 (green nodes) and STING (red nodes) in irradiated skin cells. B) Detection of the phosphorylation of STING in RIFSP‐2‐treated and irradiated HaCaT cells through IP analysis. C) Detection of the phosphorylation of TBK1 in RIFSP‐2‐treated primary skin cells from STING wild type mice and depletion ones through Western blotting analysis. […] J) Alteration of biomarkers for autophagy and pyroptosis in irradiated HaCaT cells pretreated with 15 µM RIFSP‐2 in combination with H151 or MF438, detected by Western blotting. *P < 0.05 and **P < 0.01, compared with the control group. […]
# Cells were subjected to indicated treatments. […] The protein level was detected by the indicated antibodies with Western blotting analysis.
Structure (SMILES),influence of pretreatment on the increase in LC3 II levels induced by RIFSP-2 [1],LDH release [2],formation of neutral lipid droplets [3],influence of pretreatment on the RIFSP-2 effects on ferroptosis and AV staining [4],STING phosphorylation [5]
CCc1ccc(NC(=O)Nc2c[nH]c3ccccc23)cc1 [H151],not,attenuated LDH release,,,
Cc1nnc(-c2ccc(N3CCC(Oc4ccccc4C(F)(F)F)CC3)nn2)s1 [MF‐438],dramatically limited the increase in LC3 II levels,,effectively promoted the formation of neutral lipid droplets,diminished these effects,significant reduction in STING phosphorylation
